Results on eight compounds are retold here after patent publication US20240327450A1, “GLUCOSE DERIVATIVES AND ANTICANCER AGENT USING SAME” (ORBIO CORPORATION, priority 2021, published 2024).

For series [1], the system named is nutritional deficit pancreatic cancer cells. The settings on record: Onodera, T. et al. J. Biol. Chem. 295, 16678-16690, 2020; cited from earlier work.
For series [2], the system named is mouse insulinoma MIN6 cells. The series can be described thus: Viable cell activity by Calcein-AM fluorescence in MIN6 cells. Format: cell-based. As to conditions: for cellular activity expressed as Calcein intensity: MIN6 cells at 5 DIV, 1,000 μM, vs negative control KRB; for cellular activity as assessed with Calcein: 30 minutes, vs KRB alone. The procedure:
Effects of E2-ADG (synthesized in Example 2) and E2-ALG (synthesized in Example 4) on proliferation of cells were examined. A pancreatic beta cell line (insulinoma) MIN6 from mouse pancreas (Miyazaki J. et al., Endocrinology 127: 126-132, 1990) was used as the cells, and all experiments were performed using early passage cells with a passage number of 10 or less.
(§1) In this experiment, approximately 3,000 MIN6 cells per well were seeded in each well of a 96-well plate. When 5 DIV elapsed from initiation of culture, wells to which E2-ALG was administrated and wells to which E2-ADG was administrated were arranged in the same plate with minimal external disturbance, and administration was performed according to the previously established method (Sasaki, A. et al., Human Cell 2016, 29, 37-45). The E2-ALG was dissolved in a buffer to a concentration of 1,000 μM, administered to the MIN6 cells for 10 or 30 minutes, and then washed out with a buffer solution without the E2-ALG. Meanwhile, the E2-ADG at a concentration of 1,000 μM was administered in the same manner. Carbenoxolone was pre-dissolved in a buffer solution for the purpose of excluding uptake via Hemichannel and Gap junction (Sasaki, A. et al., Human Cell 2016, 29, 37-45).
A change in cellular activity was assessed using a live cell marker Calcein-AM. The Calcein-AM is permeable to a cell membrane, and after entering a cell, an AM moiety is cleaved by an esterase activity of the cell to produce Calcein which emits green fluorescence. The Calcein-AM was applied to the MIN6 cells according to a conventional method, green fluorescence emitted by the cells was quantitatively measured using a confocal quantitative image cytometer CellVoyager CQ1 (Yokogawa Electric Corporation), and image analysis was performed using software attached to the CQ1. A difference between an E2-ALG administration group and an E2-ADG administration group was statistically compared using Stat View 5.0. The Bonferroni-Dunn test was used for the statistical comparison. A value shown by MIN6 cells at the same time as above in a Krebs-Ringer buffer (KRB) solution without E2-ALG or E2-ADG was used as a negative control.
(§2) An administration test was performed in the same manner as in Example 5-1, except that M2-ADG (synthesized in Example 1) was used instead of E2-ADG, and M2-ALG (synthesized in Example 3) was used instead of E2-ALG. However, the M2-ADG or the M2-ALG was administered for 30 minutes after 4 DIV from initiation of culture, and a concentration of the M2-ADG or the M2-ALG was 10 μM, 100 μM, or 1,000 μM.

Series [3] relates to mouse insulinoma MIN6 cells. Description: Cell death by Propidium Iodide (PI) signal in MIN6 cells. Format: cell-based. As to conditions: for occurrence of cell death (PI) / PI-positive cell death: MIN6 cells at 5 DIV, 1,000 μM; for occurrence of cell death (PI): both 10-minute and 30-minute administrations, vs negative control KRB; for effect on the cells (proportion of dead cells, PI) / cytotoxicity (PI) eliminated by PHT: MIN6 cells at 11 DIV; for effect on the cells (proportion of dead cells, PI) / proportion of dead cells expressed as a PI value / cytotoxicity (PI) eliminated by PHT: 90 minutes; for effect on the cells (proportion of dead cells, PI) / proportion of dead cells expressed as a PI value: vs KRB solution alone; for proportion of dead cells expressed as a PI value: MIN6 cells at 11 DIV, 1,000 μM; for cytotoxicity (PI) eliminated by PHT: compound 1,000 μM, PHT 150 μM. The procedure:
as §1
An extent of occurrence of cell death was assessed using Propidium Iodide (PI), a red dye that is impermeable to a cell membrane. The PI was applied to the MIN6 cells simultaneously with the Calcein-AM. The principle of assessing cell death using PI is as follows. […] However, when the PI nonspecifically enters a cell due to loss of integrity of a cell membrane caused by deterioration of a cell state, the PI binds to a nucleus of the cell, causing the nucleus to emit red fluorescence. A degree of the red fluorescence was quantitatively measured using the CellVoyager CQ1, and image analysis was performed using the software attached to the CQ1. Additionally, the degree of occurrence of cell death was evaluated by statistically comparing the control group with the administration groups or the E2-ALG administration group with the E2-ADG administration group.
Using MIN6 cells with a passage number of 10 or less, E2-ALG or E2-ADG was applied to the MIN6 cells at a concentration of 1,000 μM for 90 minutes at 11 DIV of culture at a time when spheroids with a diameter of 100 μm or more are normally formed. Specifically, approximately 1,000 MIN6 cells per well were seeded in each well of a 96-well plate and E2-ALG was dissolved in a buffer to a concentration of 10 μM or 1,000 μM at 11 DIV, administered to the MIN6 cells for 90 minutes, and then rapidly washed out with a buffer solution without E2-ALG. Similarly, E2-ADG was applied simultaneously to other wells in the same plate. A cell death marker PI was used to statistically compare a control group with administration groups or an E2-ALG administration group with an E2-ADG administration group (FIG. 3).
Whether cell death in MIN6 cells caused by E2-ALG and E2-ADG was via a specific transport mechanism that is inhibited by PHT was analyzed on the same plate. […] The E2-ADG was also tested simultaneously in the same manner on the same plate and both were compared to a control.
as §2

Series [4] has as its system colon cancer cells. The settings on record: Et3PAuCl alone; ACS Med. Chem. Lett. 8: 997-1001, 2017; cited from earlier work.
Setting [5] is: MIN6 cells at 4 DIV, 10 μM, 30 minutes, vs negative control.
Setting [6] is: MIN6 cells at 4 DIV, 100 μM, 30 minutes, vs negative control.
The mark [7] stands for this setting: MIN6 cells at 4 DIV, 1,000 μM, 30 minutes.

Molecules are shown by their SMILES.

On to `CC(=O)OC[C@H]1O[C@@H]([S-])[C@H](OC(C)=O)[C@@H](OC(C)=O)[C@@H]1OC(C)=O.CCP(CC)CC.[Au+]` [Auranofin], for which, in series [1], the “effect in nutritional deficit pancreatic cancer cells” value is “effective”.

In the case of `CCP(CC)CC.OC[C@H]1OC(O)[C@H]([S][Au])[C@@H](O)[C@@H]1O` (stereo partly drawn) [Compound E2-ADG], the “cellular activity expressed as Calcein intensity” value in series [2] (10-minute administration) was “slightly lower than that for the E2-ALG, but there was no statistically significant difference therebetween”. For the same compound, in series [2] (30-minute administration), the “cellular activity expressed as Calcein intensity” value was “clear decrease in cellular activity”. Further, in series [3], the “occurrence of cell death (PI)” value was “no statistically significant difference”, the “proportion of dead cells expressed as a PI value” is given as “significant increase in a proportion of dead cells” and the “cytotoxicity (PI) eliminated by PHT” value is given as “approximately 75%”. In addition, in series [3] (10 μM), the “effect on the cells (proportion of dead cells, PI)” value was “larger than that of the negative control (the KRB solution alone) as an average value, but not significantly different”.

Regarding `CCP(CC)CC.OC[C@@H]1OC(O)[C@@H]([S][Au])[C@H](O)[C@H]1O` (stereo partly drawn) [Compound E2-ALG], in series [2] (10-minute administration), the “cellular activity expressed as Calcein intensity” value was “slightly decreased an average value of the cellular activity compared to the negative control group, but there was no statistically significant difference”. For the same compound, the “cellular activity expressed as Calcein intensity” value in series [2] (30-minute administration) is given as “the cellular activity was clearly decreased compared to the negative control”. Further, in series [3], the “occurrence of cell death (PI)” value is given as “no statistically significant difference”, the “proportion of dead cells expressed as a PI value” is given as “significant increase in a proportion of dead cells” and the “cytotoxicity (PI) eliminated by PHT” value is on record as “approximately 75%”. Further, the “effect on the cells (proportion of dead cells, PI)” value in series [3] (10 μM) is “larger than that of the negative control (the KRB solution alone) as an average value, but not significantly different”.

For `CP(C)C.OC[C@H]1OC(O)[C@H]([S][Au])[C@@H](O)[C@@H]1O` (stereo partly drawn) [Compound M2-ADG], the “cellular activity as assessed with Calcein” value in series [2] (MIN6 cells at 4 DIV, 10 μM) was “no significant difference in cellular activity”; in series [2] (MIN6 cells at 4 DIV, 100 μM), “no significant difference in cellular activity”; in series [2] (MIN6 cells at 4 DIV, 1,000 μM), “significant decrease in cellular activity”. In addition, the “degree of cell death (PI)” value was “no difference in a degree of cell death” in series [3] (setting [5]); “an average value increased, but there was still no significant difference from the negative control” in series [3] (setting [6]); “clear cell death was observed” in series [3] (setting [7]).

For `CP(C)C.OC[C@@H]1OC(O)[C@@H]([S][Au])[C@H](O)[C@H]1O` (stereo partly drawn) [Compound M2-ALG], the “cellular activity as assessed with Calcein” value was “no significant difference in cellular activity” in series [2] (MIN6 cells at 4 DIV, 10 μM); “no significant difference in cellular activity” in series [2] (MIN6 cells at 4 DIV, 100 μM); “significant decrease in cellular activity” in series [2] (MIN6 cells at 4 DIV, 1,000 μM). Further, the “degree of cell death (PI)” value in series [3] (setting [5]) was “no difference in a degree of cell death”; in series [3] (setting [6]), “an average value increased, but there was still no significant difference from the negative control”; in series [3] (setting [7]), “clear cell death was observed”.

For `CC[PH](CC)(CC)[Au][S][C@@H]1OC(CO)[C@@H](O)[C@H](O)C1O` (stereo partly drawn) [DGG, reference compound], the PI-positive cell death result in series [3] (10 minutes) is “more PI-positive cell death than the negative control”; in series [3] (30 minutes), “distinct PI-positive cell death”.

Consider `CCP(CC)CC.[Au+].[Cl-]` [Et3PAuCl, chloro(triethylphosphine)gold(I)], for which, in series [4], the “cytotoxicity to colon cancer cells” value was “cytotoxic”.

Regarding `CC[PH](CC)(CC)[Au][S][C@H]1O[C@@H](CO)[C@H](O)[C@@H](O)[C@@H]1O` [LGG, reference compound], the PI-positive cell death entry is “PI-positive cell death comparable to that of the negative control” in series [3] (10 minutes) and “only about as much PI-positive cell death as a negative control group” in series [3] (30 minutes).
